# Assay results as given in PubChem BioAssay AID1963828 (Molecular Pharmacology Branch, DTP, NCI, 2024).
# Test system: 991263-137-R1-J2-PDC complex spheroid viability
# Assay: Anticancer human tumor 991263-137-R1-J2-PDC patient-derived colon adenocarcinoma cell line growth inhibition [POLQ]
# Details: for IC50: curve of first compound; for viability, T/C: stronger effect = lower value
# In short: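 Complex spheroid viability model combining PDC tumour cells with endothelial (HUVEC) and MSC stromal cells. Novobiocin, ART-558 or RP6685 were tested singly and in combination with standard and investigational anticancer drugs. Each was titrated in half-log steps from near clinical Cmax, or from 10 microM where Cmax was unknown.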
# [1] = second compound 0.0316 µM, first compound 0.0316 µM
# [2] = second compound 0.0316 µM, first compound 0.1 µM
# [3] = second compound 0.0316 µM, first compound 0.316 µM
# [4] = second compound 0.0316 µM, first compound 1 µM
# [5] = second compound 0.0316 µM, first compound 3.16 µM
# [6] = second compound 0.0316 µM, first compound 10 µM
# [7] = second compound 0.1 µM, first compound 0.0316 µM
# [8] = second compound 0.1 µM, first compound 0.1 µM
# [9] = second compound 0.1 µM, first compound 0.316 µM
# [10] = second compound 0.1 µM, first compound 1 µM
# [11] = second compound 0.1 µM, first compound 3.16 µM
# [12] = second compound 0.1 µM, first compound 10 µM
# [13] = second compound 0.316 µM, first compound 0.0316 µM
# [14] = second compound 0.316 µM, first compound 0.1 µM
# [15] = second compound 0.316 µM, first compound 0.316 µM
# [16] = second compound 0.316 µM, first compound 1 µM
# [17] = second compound 0.316 µM, first compound 3.16 µM
# [18] = second compound 0.316 µM, first compound 10 µM
# [19] = second compound 1 µM, first compound 0.0316 µM
# [20] = second compound 1 µM, first compound 0.1 µM
# [21] = second compound 1 µM, first compound 0.316 µM
# [22] = second compound 1 µM, first compound 1 µM
# [23] = second compound 1 µM, first compound 3.16 µM
# [24] = second compound 1 µM, first compound 10 µM
# [25] = second compound 3.16 µM, first compound 0.0316 µM
# [26] = second compound 3.16 µM, first compound 0.1 µM
# [27] = second compound 3.16 µM, first compound 0.316 µM
# [28] = second compound 3.16 µM, first compound 1 µM
# [29] = second compound 3.16 µM, first compound 3.16 µM
# [30] = second compound 3.16 µM, first compound 10 µM
# [31] = second compound 10 µM, first compound 0.0316 µM
# [32] = second compound 10 µM, first compound 0.1 µM
# [33] = second compound 10 µM, first compound 0.316 µM
# [34] = second compound 10 µM, first compound 1 µM
# [35] = second compound 10 µM, first compound 3.16 µM
# [36] = second compound 10 µM, first compound 10 µM
# 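Further: spheroids exposed to compounds for 7 days before readout.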
# 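Wherever viability, T/C is given: 100% = DMSO vehicle control viability.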
smiles,measurement,setting,value
C#Cc1c(F)ccc2cc(O)cc(-c3ncc4c(N5CC6CCC(C5)N6)nc(OCC56CCCN5CC(F)C6)nc4c3F)c12 (stereo not drawn) + Nc1ccc(C#CCN(C(=O)Cc2ncc(C(F)(F)F)cc2C(F)(F)F)c2ccc(F)cc2)nn1,IC50,second compound 0.0316 µM,> 10 µM
same,IC50,second compound 0.1 µM,> 10 µM
same,IC50,second compound 0.316 µM,> 10 µM
same,IC50,second compound 1 µM,> 10 µM
same,IC50,second compound 3.16 µM,> 10 µM
same,IC50,second compound 10 µM,> 10 µM
same,"viability, T/C",[1],104%
same,"viability, T/C",[2],111%
same,"viability, T/C",[3],99.6%
same,"viability, T/C",[4],102%
same,"viability, T/C",[5],105%
same,"viability, T/C",[6],88%
same,"viability, T/C",[7],103%
same,"viability, T/C",[8],108%
same,"viability, T/C",[9],96.5%
same,"viability, T/C",[10],102%
same,"viability, T/C",[11],103%
same,"viability, T/C",[12],92%
same,"viability, T/C",[13],103%
same,"viability, T/C",[14],99.8%
same,"viability, T/C",[15],99.8%
same,"viability, T/C",[16],102%
same,"viability, T/C",[17],105%
same,"viability, T/C",[18],108%
same,"viability, T/C",[19],97.5%
same,"viability, T/C",[20],95.2%
same,"viability, T/C",[21],107%
same,"viability, T/C",[22],86.8%
same,"viability, T/C",[23],106%
same,"viability, T/C",[24],96.1%
same,"viability, T/C",[25],102%
same,"viability, T/C",[26],105%
same,"viability, T/C",[27],104%
same,"viability, T/C",[28],112%
same,"viability, T/C",[29],123%
same,"viability, T/C",[30],98.7%
same,"viability, T/C",[31],100%
same,"viability, T/C",[32],98.2%
same,"viability, T/C",[33],93.4%
same,"viability, T/C",[34],101%
same,"viability, T/C",[35],87.6%
same,"viability, T/C",[36],80.4%
CCCS(=O)(=O)Nc1ccc(F)c(C(=O)c2c[nH]c3ncc(-c4ccc(Cl)cc4)cc23)c1F + Nc1ccc(C#CCN(C(=O)Cc2ncc(C(F)(F)F)cc2C(F)(F)F)c2ccc(F)cc2)nn1,IC50,second compound 0.0316 µM,> 10 µM
same,IC50,second compound 0.1 µM,> 10 µM
same,IC50,second compound 0.316 µM,> 10 µM
same,IC50,second compound 1 µM,> 10 µM
same,IC50,second compound 3.16 µM,> 10 µM
same,IC50,second compound 10 µM,> 10 µM
same,"viability, T/C",[1],114%
same,"viability, T/C",[2],98.2%
same,"viability, T/C",[3],103%
same,"viability, T/C",[4],107%
same,"viability, T/C",[5],117%
same,"viability, T/C",[6],102%
same,"viability, T/C",[7],97.6%
same,"viability, T/C",[8],101%
same,"viability, T/C",[9],97.2%
same,"viability, T/C",[10],110%
same,"viability, T/C",[11],103%
same,"viability, T/C",[12],103%
same,"viability, T/C",[13],105%
same,"viability, T/C",[14],114%
same,"viability, T/C",[15],108%
same,"viability, T/C",[16],98.7%
same,"viability, T/C",[17],128%
same,"viability, T/C",[18],95.1%
same,"viability, T/C",[19],93.9%
same,"viability, T/C",[20],102%
same,"viability, T/C",[21],112%
same,"viability, T/C",[22],117%
same,"viability, T/C",[23],117%
same,"viability, T/C",[24],107%
same,"viability, T/C",[25],117%
same,"viability, T/C",[26],97.3%
same,"viability, T/C",[27],111%
same,"viability, T/C",[28],93.2%
same,"viability, T/C",[29],111%
same,"viability, T/C",[30],115%
same,"viability, T/C",[31],90.2%
same,"viability, T/C",[32],112%
same,"viability, T/C",[33],95.7%
same,"viability, T/C",[34],104%
same,"viability, T/C",[35],115%
same,"viability, T/C",[36],116%
CC(C)n1c(=O)n(C)c2cnc3cc(F)c(-c4ccc(OCCCN5CCCCC5)nc4)cc3c21 + COC1C(OC(N)=O)C(O)C(Oc2ccc3c(O)c(NC(=O)c4ccc(O)c(CC=C(C)C)c4)c(=O)oc3c2C)OC1(C)C,IC50,second compound 0.0316 µM,> 10 µM
same,IC50,second compound 0.1 µM,> 10 µM
same,IC50,second compound 0.316 µM,> 10 µM
same,IC50,second compound 1 µM,> 10 µM
same,IC50,second compound 3.16 µM,> 10 µM
same,IC50,second compound 10 µM,> 10 µM
same,"viability, T/C",[1],107%
same,"viability, T/C",[2],109%
same,"viability, T/C",[3],118%
same,"viability, T/C",[4],101%
same,"viability, T/C",[5],103%
same,"viability, T/C",[6],82.7%
same,"viability, T/C",[7],91.5%
same,"viability, T/C",[8],106%
same,"viability, T/C",[9],116%
same,"viability, T/C",[10],99%
same,"viability, T/C",[11],102%
same,"viability, T/C",[12],82.1%
same,"viability, T/C",[13],86.3%
same,"viability, T/C",[14],114%
same,"viability, T/C",[15],117%
same,"viability, T/C",[16],96.9%
same,"viability, T/C",[17],106%
same,"viability, T/C",[18],96.2%
same,"viability, T/C",[19],109%
same,"viability, T/C",[20],106%
same,"viability, T/C",[21],112%
same,"viability, T/C",[22],83.5%
same,"viability, T/C",[23],109%
same,"viability, T/C",[24],90%
same,"viability, T/C",[25],111%
same,"viability, T/C",[26],116%
same,"viability, T/C",[27],110%
same,"viability, T/C",[28],108%
same,"viability, T/C",[29],95.3%
same,"viability, T/C",[30],96.1%
same,"viability, T/C",[31],95.1%
same,"viability, T/C",[32],119%
same,"viability, T/C",[33],117%
same,"viability, T/C",[34],114%
same,"viability, T/C",[35],107%
same,"viability, T/C",[36],96.6%
O=C(Nc1ccc(O)c(NS(=O)(=O)c2ccc(F)cc2)c1)c1ccc(-c2ccccc2)cc1 + COC1C(OC(N)=O)C(O)C(Oc2ccc3c(O)c(NC(=O)c4ccc(O)c(CC=C(C)C)c4)c(=O)oc3c2C)OC1(C)C,IC50,second compound 0.0316 µM,> 10 µM
same,IC50,second compound 0.1 µM,> 10 µM
same,IC50,second compound 0.316 µM,> 10 µM
same,IC50,second compound 1 µM,> 10 µM
same,IC50,second compound 3.16 µM,> 10 µM
same,IC50,second compound 10 µM,> 10 µM
same,"viability, T/C",[1],87.8%
same,"viability, T/C",[2],111%
same,"viability, T/C",[3],112%
same,"viability, T/C",[4],93.5%
same,"viability, T/C",[5],89.3%
same,"viability, T/C",[6],105%
same,"viability, T/C",[7],110%
same,"viability, T/C",[8],119%
same,"viability, T/C",[9],113%
same,"viability, T/C",[10],79.6%
same,"viability, T/C",[11],110%
same,"viability, T/C",[12],93.5%
same,"viability, T/C",[13],93.9%
same,"viability, T/C",[14],112%
same,"viability, T/C",[15],92.8%
same,"viability, T/C",[16],106%
same,"viability, T/C",[17],93.1%
same,"viability, T/C",[18],92.8%
same,"viability, T/C",[19],119%
same,"viability, T/C",[20],101%
same,"viability, T/C",[21],100%
same,"viability, T/C",[22],109%
same,"viability, T/C",[23],109%
same,"viability, T/C",[24],96.3%
same,"viability, T/C",[25],101%
same,"viability, T/C",[26],103%
same,"viability, T/C",[27],91.2%
same,"viability, T/C",[28],79.1%
same,"viability, T/C",[29],111%
same,"viability, T/C",[30],79.6%
same,"viability, T/C",[31],96.5%
same,"viability, T/C",[32],112%
same,"viability, T/C",[33],103%
same,"viability, T/C",[34],104%
same,"viability, T/C",[35],102%
same,"viability, T/C",[36],91.5%
